In patent US11207312B2, “Metallo-beta-lactamase inhibitors and methods of use thereof” (priority 2017, dated 2021):
≈ marks a conversion by molar mass, not a printed value.

Key:
MB5890 (OprD+, efflux-) = assay: microbe, parasite or virus in culture; assay type: cell-based, Pseudomonas aeruginosa
Source text: (§1) The strain background is Pseudomonas aeruginosa PAO1. A wild-type (M135919) and an isogenic strain in which multiple efflux pumps have been disrupted genetically were used. The MBL IMP-1, obtained from a clinical isolate was introduced into the strain pair by the following process:
(§2) The plasmid DNA was transformed into parental MB5919 (oprD+, efflux+, inducible AmpC) and MB5890 (oprD+, efflux−, inducible AmpC) isogenic strains by electroporation.
(§3) Minimum inhibitory concentrations of sentinel antibiotics were performed to quality control the new strains.

MB5919 (OprD+, efflux+) = assay: microbe, parasite or virus in culture; assay type: cell-based, Pseudomonas aeruginosa
Source text: as §1, §2, §3

[1] = test system: MB9798 (efflux+ MB5919 Trans IMP1 plasmid); assay: microbe, parasite or virus in culture; assay type: cell-based, Pseudomonas aeruginosa
Source text: as §1, §2, §3

[2] = test system: MB9799 (efflux- MB5890 Trans IMP1 plasmid); assay: microbe, parasite or virus in culture; assay type: cell-based, Pseudomonas aeruginosa
Source text: as §1, §2, §3

[3] = test system: MB9861 (Efflux+ MB5919 Trans pFlp-Vim1 plasmid); assay: microbe, parasite or virus in culture; assay type: cell-based, Pseudomonas aeruginosa
[4] = test system: MB9862 (efflux- MB5890 trans pFlp-Vim1); assay: microbe, parasite or virus in culture; assay type: cell-based, Pseudomonas aeruginosa
[5] = test system: efflux+ MB5919 Trans pFlp-Vim2 plasmid; assay: microbe, parasite or virus in culture; assay type: cell-based, Pseudomonas aeruginosa
[6] = test system: efflux- MB5890 Trans pFlp-Vim2 plasmid; assay: microbe, parasite or virus in culture; assay type: cell-based, Pseudomonas aeruginosa
NDM-1 = NDM-1 (Klebsiella pneumoniae, UniProt C7C422); assay: biochemical; assay type: biochemical; conditions: CCF2-FA fluorescence assay, 2 hours at 25° C.
Chain of NDM-1 (C7C422 whole entry, looked up, species assumed): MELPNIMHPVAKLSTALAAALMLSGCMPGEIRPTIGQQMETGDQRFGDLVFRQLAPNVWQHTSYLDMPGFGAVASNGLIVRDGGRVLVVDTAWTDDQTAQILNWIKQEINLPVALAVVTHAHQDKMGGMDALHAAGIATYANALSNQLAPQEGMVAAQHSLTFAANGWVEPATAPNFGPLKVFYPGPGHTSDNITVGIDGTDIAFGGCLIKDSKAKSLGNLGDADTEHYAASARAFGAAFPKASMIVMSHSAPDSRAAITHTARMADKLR
In short: (§4)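 Enzyme (NDM-1 1 pM, IMP-1 2 pM, VIM-1 30 pM final) and 1.25 μM CCF2-FA incubated with inhibitor (20 to 0.00063 μM) for 2 h at 25° C in 100 mM KH2PO4 pH 7, 0.005% Tween-20, 10 μM ZnSO4. Fluorescence read at ex 405/em 460 nm; IC50 by 4-parameter fit.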

IMP-1 = IMP-1 (Serratia marcescens, UniProt P52699); assay: biochemical; conditions: CCF2-FA fluorescence assay, 2 hours at 25° C.; read-out: IMP1 IC50
Chain of IMP-1 (P52699 whole entry, looked up, species assumed): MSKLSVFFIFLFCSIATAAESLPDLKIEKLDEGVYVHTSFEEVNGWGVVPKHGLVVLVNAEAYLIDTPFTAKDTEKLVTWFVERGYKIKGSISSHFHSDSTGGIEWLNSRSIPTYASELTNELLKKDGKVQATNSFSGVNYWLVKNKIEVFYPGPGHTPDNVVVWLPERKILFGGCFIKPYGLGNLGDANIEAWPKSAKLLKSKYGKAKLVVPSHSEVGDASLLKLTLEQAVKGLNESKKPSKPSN
In short: as §4

VIM-1 = VIM-1 (Pseudomonas aeruginosa (strain ATCC 15692 / DSM 22644 / CIP 104116 / JCM 14847 / LMG 12228 / 1C / PRS 101 / PAO1), UniProt A0A0F7KYQ8); assay: biochemical; conditions: CCF2-FA fluorescence assay, 2 hours at 25° C.; read-out: VIM1 IC50
In short: as §4

VIM-2 = VIM-2 (Escherichia coli, UniProt Q5U7L7); assay: biochemical; conditions: CCF2-FA fluorescence assay; read-out: VIM2 IC50
[7] = test system: Escherichia coli expressing NDM-1 (CLB30016); assay type: cell-based; conditions: with imipenem 1 μg/ml; 95% inhibition of bacterial growth
In short: (§5)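 Read-out is absorbance after 22–24 h at 35 °C, with MITC95 taken as the lowest inhibitor concentration that, alongside imipenem at 1 μg/ml, suppresses 95% of bacterial growth. Inocula came from saline-suspended colonies diluted 1:100 into 1.1× CAMHB.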

[8] = test system: Klebsiella pneumoniae expressing VIM-1 (IHMA599644); assay type: cell-based; conditions: with imipenem 1 μg/ml; 95% inhibition of bacterial growth
In short: as §5

[9] = test system: Serratia marcescens expressing IMP-1 (CL5741); assay type: cell-based; conditions: with imipenem 1 μg/ml; 95% inhibition of bacterial growth
In short: as §5

[10] = test system: P. aeruginosa MB9798 (efflux+, IMP-1 plasmid); conditions: for MB9798 MITC95 P. aeruginosa uM Efflux WT: efflux + (MB9798) strain, imipenem at 2 μg/mL, in the presence of a class A, C, D serine β-lactamase inhibitor closely related to relebactam; for Efflux ratio: fold difference between efflux+ (MB9798) and efflux− (MB9799) strains
In short: (§6)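 Isogenic P. aeruginosa PAO1 strains (efflux+ and multiple-efflux-pump-disrupted) carrying plasmid IMP-1, with inducible AmpC, tested by broth microdilution. Imipenem and/or ceftazidime fixed, usually at CLSI breakpoint, plus fixed class A/C β-lactamase inhibitor; titrated MBL inhibitor concentration restoring susceptibility recorded and compared between strains as efflux fold difference.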

[11] = test system: P. aeruginosa MB9799 (efflux-, IMP-1 plasmid); assay type: cell-based, Pseudomonas aeruginosa; conditions: efflux − (MB9799) strain; imipenem at 2 μg/mL; in the presence of a class A, C, D serine β-lactamase inhibitor closely related to relebactam
In short: as §6

[12] = MB9798, OprD+, efflux+, MB5919 Trans IMP1 plasmid (CL 5673)
[13] = MB9799, OprD+, efflux−, MB5890 Trans IMP1 plasmid (CL 5673)
[14] = MB9861, OprD+, Efflux+, MB5919 Trans pFlp-Vim1 plasmid
[15] = MB9862, OprD+, efflux−, MB5890 trans pFlp-Vim1
[16] = OprD+, efflux+, MB5919 Trans pFlp-Vim2 plasmid
[17] = OprD+, efflux−, MB5890 Trans pFlp-Vim2 plasmid

SMILES | MIC (MB5890 (OprD+, efflux-); MB5890, OprD+, efflux−) | MIC (MB5919 (OprD+, efflux+); MB5919, OprD+, efflux+) | MIC [1, 12] | MIC [2, 13] | MIC [3, 14] | MIC [4, 15] | MIC [5, 16] | MIC [6, 17] | IC50 (NDM-1) | IC50 (IMP-1) | IC50 (VIM-1) | IC50 (VIM-2) | CLB30016 E. coli MITC95 NDM [7] | IHMA599644 K. pneumoniae MITC95 VIM [8] | CL5741 S. marcescens MITC95 IMP [9] | MB9798 MITC95 P. aeruginosa uM Efflux WT [10] | Efflux ratio [10] | MB9799 MITC95 P. aeruginosa uM Efflux Mutant [11] | also measured
CCN1CCN(C(=O)N[C@@H](C(=O)N[C@@H]2C(=O)N3[C@@H]2SC(C)(C)[C@@H]3C(=O)O)c2ccccc2)C(=O)C1=O [Pipercillin, piperacillin] | 1 µg/mL (≈ 1.93 µM) | 2 µg/mL (≈ 3.86 µM) | 4 µg/mL (≈ 7.73 µM) | 4 µg/mL (≈ 7.73 µM) | >256 µg/mL | 128 µg/mL (≈ 247 µM) | >256 µg/mL | 128 µg/mL (≈ 247 µM) |  |  |  |  |  |  |  |  |  |  | 
CC[C@H]1OC(=O)[C@H](C)[C@@H](O[C@H]2C[C@@](C)(OC)[C@@H](O)[C@H](C)O2)[C@H](C)[C@@H](O[C@@H]2O[C@H](C)C[C@H](N(C)C)[C@H]2O)[C@](C)(O)C[C@@H](C)CN(C)[C@H](C)[C@@H](O)[C@]1(C)O [Azithromycin] |  |  |  |  |  |  |  |  |  |  |  |  |  |  |  |  |  |  | MIC (MB5890 (OprD+, efflux-); Pseudomonas aeruginosa): 1 µg/mL (≈ 1.34 µM); MIC (MB5919 (OprD+, efflux+); Pseudomonas aeruginosa): 16 µg/mL (≈ 21.4 µM); MIC ([1]; Pseudomonas aeruginosa): 2 µg/mL (≈ 2.67 µM); MIC ([2]; Pseudomonas aeruginosa): 2 µg/mL (≈ 2.67 µM); MIC ([3]; Pseudomonas aeruginosa): 32 µg/mL (≈ 42.7 µM); MIC ([4]; Pseudomonas aeruginosa): 1 µg/mL (≈ 1.34 µM); MIC ([5]; Pseudomonas aeruginosa): 32 µg/mL (≈ 42.7 µM); MIC ([6]; Pseudomonas aeruginosa): 1 µg/mL (≈ 1.34 µM)
C[C@@H](O)[C@H]1C(=O)N2C(C(=O)O)=C(SCCN=CN)C[C@H]12 [Imipenem, imipenem] | 2 µg/mL (≈ 6.68 µM) | 4 µg/mL (≈ 13.4 µM) | 64 µg/mL (≈ 214 µM) | 32 µg/mL (≈ 107 µM) | >64 µg/mL | 64 µg/mL (≈ 214 µM) | >64 µg/mL | 32 µg/mL (≈ 107 µM) |  |  |  |  |  |  |  |  |  |  | 
C[C@@H](O)[C@H]1C(=O)N2C(C(=O)O)=C(S[C@@H]3CN[C@H](C(=O)N(C)C)C3)[C@H](C)[C@H]12 [Meropenem, meropenem] | 0.5 µg/mL (≈ 1.3 µM) | 2 µg/mL (≈ 5.22 µM) | >64 µg/mL | 64 µg/mL (≈ 167 µM) | >64 µg/mL | 64 µg/mL (≈ 167 µM) | >64 µg/mL | 32 µg/mL (≈ 83.4 µM) |  |  |  |  |  |  |  |  |  |  | 
CC(C)(O/N=C(\C(=O)N[C@@H]1C(=O)N2C(C(=O)[O-])=C(C[n+]3ccccc3)CS[C@H]12)c1csc(N)n1)C(=O)O [CAZ, ceftazidime] | 0.5 µg/mL (≈ 0.915 µM) | 1 µg/mL (≈ 1.83 µM) | 256 µg/mL (≈ 468 µM) | 256 µg/mL (≈ 468 µM) | >256 µg/mL | >256 µg/mL | 128 µg/mL (≈ 234 µM) | 64 µg/mL (≈ 117 µM) |  |  |  |  |  |  |  |  |  |  | 
O=C(N[C@H](CO)[C@H](O)c1ccc([N+](=O)[O-])cc1)C(Cl)Cl [Chloramphenicol, chloramphenicol] |  |  |  |  |  |  |  |  |  |  |  |  |  |  |  |  |  |  | MIC (MB5890 (OprD+, efflux-); Pseudomonas aeruginosa): 1 µg/mL (≈ 3.09 µM); MIC (MB5919 (OprD+, efflux+); Pseudomonas aeruginosa): > 64 µg/mL; MIC ([1]; Pseudomonas aeruginosa): > 64 µg/mL; MIC ([2]; Pseudomonas aeruginosa): 1 µg/mL (≈ 3.09 µM); MIC ([3]; Pseudomonas aeruginosa): > 64 µg/mL; MIC ([4]; Pseudomonas aeruginosa): 2 µg/mL (≈ 6.19 µM); MIC ([5]; Pseudomonas aeruginosa): > 64 µg/mL; MIC ([6]; Pseudomonas aeruginosa): 1 µg/mL (≈ 3.09 µM)
NCC1=CCN(c2ccc(S(=O)(=O)NC[C@H](O)CN)c(S(N)(=O)=O)c2-c2nn[nH]n2)CC1 [Example 175, (R)-N1-(3-amino-2-hydroxypropyl)-4-(4-(aminomethyl)-5,6-dihydropyridin-1(2H)-yl)-3-(2H-tetrazol-5-yl)benzene-1,2-disulfonamide] |  |  |  |  |  |  |  |  | 2.55 nM | 3.66 nM | 0.24 nM | 4.18 nM | 0.39 µM | 1.56 µM | 0.78 µM | 1.56 µM | 2.00 | 0.78 µM | 
NC[C@H](N)CNS(=O)(=O)c1ccc(N2CCC(c3c[nH]cn3)CC2)c(-c2nn[nH]n2)c1S(N)(=O)=O [Example 168, (S)-4-(4-(1H-imidazol-4-yl)piperidin-1-yl)-N1-(2,3-diaminopropyl)-3-(2H-tetrazol-5-yl)benzene-1,2-disulfonamide] |  |  |  |  |  |  |  |  | 0.17 nM | 0.24 nM | 0.07 nM | 0.48 nM | 0.39 µM | 1.56 µM | 0.78 µM | 1.56 µM | 2.00 | 0.78 µM | 
NS(=O)(=O)c1c(S(=O)(=O)N[C@@H]2CCNC2)ccc(NCCN2CCNCC2)c1-c1nnn[nH]1 [Example 75, 4-[(2-piperazin-1-ylethyl)amino]-N1-[(3R)-pyrrolidin-3-yl]-3-(1H-tetrazol-5-yl)benzene-1,2-disulfonamide] |  |  |  |  |  |  |  |  | 162 nM | 178 nM | 6.75 nM | 200 nM | 6.25 µM | 3.13 µM | 12.50 µM | 25.00 µM | 8.00 | 3.13 µM | 
